In ChEMBL document CHEMBL2010711, “Synthesis and comparative evaluation of 4-oxa- and 4-aza-podophyllotoxins as antiproliferative microtubule destabilizing agents” (Bioorg Med Chem Lett, 2012):
The source made the active and inactive calls.

Assays:
CCRF-CEM = assay: Cytotoxicity against human CCRF-CEM cells after 48 hrs by trypan blue dye exclusion assay; type: functional
HL-60(TB) = assay: Cytotoxicity against human HL-60(TB) cells after 48 hrs by trypan blue dye exclusion assay; type: functional; details: HL-60, 48 h
K562 = assay: Cytotoxicity against human K562 cells after 48 hrs by trypan blue dye exclusion assay; type: functional; details: K562, 48 h
MOLT-4 = assay: Cytotoxicity against human MOLT4 cells after 48 hrs by trypan blue dye exclusion assay; type: functional; details: MOLT-4, 48 h
RPMI-8226 = assay: Cytotoxicity against human RPMI8226 cells after 48 hrs by trypan blue dye exclusion assay; type: functional; details: RPMI-8226, 48 h
SR = assay: Cytotoxicity against human SR cells after 48 hrs by trypan blue dye exclusion assay; type: functional
A549 = assay: Cytotoxicity against human A549 cells after 48 hrs by trypan blue dye exclusion assay; type: functional; details: A549, 48 h
EKVX = assay: Cytotoxicity against human EKVX cells after 48 hrs by trypan blue dye exclusion assay; type: functional
HOP-62 = assay: Cytotoxicity against human HOP62 cells after 48 hrs by trypan blue dye exclusion assay; type: functional; details: HOP-62, 48 h
HOP-92 = assay: Cytotoxicity against human HOP92 cells after 48 hrs by trypan blue dye exclusion assay; type: functional; details: HOP-92, 48 h
NCI-H226 = assay: Cytotoxicity against human NCI-H226 cells after 48 hrs by trypan blue dye exclusion assay; type: functional; details: NCI-H226, 48 h
NCI-H23 = assay: Cytotoxicity against human NCI-H23 cells after 48 hrs by trypan blue dye exclusion assay; type: functional; details: NCI-H23, 48 h
NCI-H322M = assay: Cytotoxicity against human NCI-H322M cells after 48 hrs by trypan blue dye exclusion assay; type: functional
NCI-H460 = assay: Cytotoxicity against human NCI-H460 cells after 48 hrs by trypan blue dye exclusion assay; type: functional; details: NCI-H460, 48 h
NCI-H522 = assay: Cytotoxicity against human NCI-H522 cells after 48 hrs by trypan blue dye exclusion assay; type: functional; details: NCI-H522, 48 h
COLO 205 = assay: Cytotoxicity against human COLO205 cells after 48 hrs by trypan blue dye exclusion assay; type: functional; details: COLO 205, 48 h
HCC 2998 = assay: Cytotoxicity against human HCC2998 cells after 48 hrs by trypan blue dye exclusion assay; type: functional; details: HCC 2998, 48 h
HCT-116 = assay: Cytotoxicity against human HCT116 cells after 48 hrs by trypan blue dye exclusion assay; type: functional; details: HCT-116, 48 h
HCT-15 = assay: Cytotoxicity against human HCT15 cells after 48 hrs by trypan blue dye exclusion assay; type: functional; details: HCT-15, 48 h
HT-29 = assay: Cytotoxicity against human HT-29 cells after 48 hrs by trypan blue dye exclusion assay; type: functional; details: HT-29, 48 h
KM12 = assay: Cytotoxicity against human KM12 cells after 48 hrs by trypan blue dye exclusion assay; type: functional; details: KM12, 48 h
SW-620 = assay: Cytotoxicity against human SW620 cells after 48 hrs by trypan blue dye exclusion assay; type: functional; details: SW-620, 48 h
SF-268 = assay: Cytotoxicity against human SF268 cells after 48 hrs by trypan blue dye exclusion assay; type: functional; details: SF-268, 48 h
SF-295 = assay: Cytotoxicity against human SF295 cells after 48 hrs by trypan blue dye exclusion assay; type: functional; details: SF-295, 48 h
SF-539 = assay: Cytotoxicity against human SF539 cells after 48 hrs by trypan blue dye exclusion assay; type: functional; details: SF-539, 48 h
SNB-19 = assay: Cytotoxicity against human SNB19 cells after 48 hrs by trypan blue dye exclusion assay; type: functional; details: SNB-19, 48 h
SNB-75 = assay: Cytotoxicity against human SNB75 cells after 48 hrs by trypan blue dye exclusion assay; type: functional; details: SNB-75, 48 h
U-251 = assay: Cytotoxicity against human U251 cells after 48 hrs by trypan blue dye exclusion assay; type: functional; details: U-251, 48 h
LOX IMVI = assay: Cytotoxicity against human LOXIMVI cells after 48 hrs by trypan blue dye exclusion assay; type: functional
Malme-3M = assay: Cytotoxicity against human MALME-3M cells after 48 hrs by trypan blue dye exclusion assay; type: functional
M14 = assay: Cytotoxicity against human M14 cells after 48 hrs by trypan blue dye exclusion assay; type: functional; details: M14, 48 h
MDA-MB-435 = assay: Cytotoxicity against human MDA-MB-435 cells after 48 hrs by trypan blue dye exclusion assay; type: functional; details: MDA-MB-435, 48 h
SK-MEL-2 = assay: Cytotoxicity against human SK-MEL-2 cells after 48 hrs by trypan blue dye exclusion assay; type: functional; details: SK-MEL-2, 48 h
SK-MEL-28 = assay: Cytotoxicity against human SK-MEL-28 cells after 48 hrs by trypan blue dye exclusion assay; type: functional; details: SK-MEL-28, 48 h
SK-MEL-5 = assay: Cytotoxicity against human SK-MEL-5 cells after 48 hrs by trypan blue dye exclusion assay; type: functional; details: SK-MEL-5, 48 h
UACC-257 = assay: Cytotoxicity against human UACC257 cells after 48 hrs by trypan blue dye exclusion assay; type: functional; details: UACC-257, 48 h
UACC-62 = assay: Cytotoxicity against human UACC62 cells after 48 hrs by trypan blue dye exclusion assay; type: functional; details: UACC-62, 48 h
IGROV-1 = assay: Cytotoxicity against human IGROV1 cells after 48 hrs by trypan blue dye exclusion assay; type: functional; details: IGROV-1, 48 h
OVCAR-3 = assay: Cytotoxicity against human OVCAR3 cells after 48 hrs by trypan blue dye exclusion assay; type: functional; details: OVCAR-3, 48 h
OVCAR-4 = assay: Cytotoxicity against human OVCAR4 cells after 48 hrs by trypan blue dye exclusion assay; type: functional; details: OVCAR-4, 48 h
OVCAR-5 = assay: Cytotoxicity against human OVCAR5 cells after 48 hrs by trypan blue dye exclusion assay; type: functional; details: OVCAR-5, 48 h
OVCAR-8 = assay: Cytotoxicity against human OVCAR8 cells after 48 hrs by trypan blue dye exclusion assay; type: functional; details: OVCAR-8, 48 h
NCI/ADR-RES = assay: Cytotoxicity against human NCI/ADR-RES cells after 48 hrs by trypan blue dye exclusion assay; type: functional
SK-OV-3 = assay: Cytotoxicity against human SKOV3 cells after 48 hrs by trypan blue dye exclusion assay; type: functional; details: SK-OV-3, 48 h
786-0 = assay: Cytotoxicity against human 786-0 cells after 48 hrs by trypan blue dye exclusion assay; type: functional; details: 786-0, 48 h
A498 = assay: Cytotoxicity against human A498 cells after 48 hrs by trypan blue dye exclusion assay; type: functional; details: A498, 48 h
ACHN = assay: Cytotoxicity against human ACHN cells after 48 hrs by trypan blue dye exclusion assay; type: functional
CAKI-1 = assay: Cytotoxicity against human CAKI-1 cells after 48 hrs by trypan blue dye exclusion assay; type: functional; details: CAKI-1, 48 h
RXF 393 = assay: Cytotoxicity against human RXF393 cells after 48 hrs by trypan blue dye exclusion assay; type: functional; details: RXF 393, 48 h
SN12C = assay: Cytotoxicity against human SN12C cells after 48 hrs by trypan blue dye exclusion assay; type: functional
TK-10 = assay: Cytotoxicity against human TK10 cells after 48 hrs by trypan blue dye exclusion assay; type: functional; details: TK-10, 48 h
UO-31 = assay: Cytotoxicity against human UO31 cells after 48 hrs by trypan blue dye exclusion assay; type: functional; details: UO-31, 48 h
PC-3 = assay: Cytotoxicity against human PC3 cells after 48 hrs by trypan blue dye exclusion assay; type: functional; details: PC-3, 48 h
DU-145 = assay: Cytotoxicity against human DU145 cells after 48 hrs by trypan blue dye exclusion assay; type: functional; details: DU-145, 48 h
MCF7 = assay: Cytotoxicity against human MCF7 cells after 48 hrs by trypan blue dye exclusion assay; type: functional; details: MCF7, 48 h
MDA-MB-231 = assay: Cytotoxicity against human MDA-MB-231 cells after 48 hrs by trypan blue dye exclusion assay; type: functional; details: MDA-MB-231, 48 h
[1] = Cytotoxicity against human Hs 578T cells after 48 hrs by trypan blue dye exclusion assay; type: functional
BT-549 = assay: Cytotoxicity against human BT549 cells after 48 hrs by trypan blue dye exclusion assay; type: functional; details: BT-549, 48 h
T47D = assay: Cytotoxicity against human T47D cells after 48 hrs by trypan blue dye exclusion assay; type: functional
MDA-MB-468 = assay: Cytotoxicity against human MDA-MB-468 cells after 48 hrs by trypan blue dye exclusion assay; type: functional; details: MDA-MB-468, 48 h
Paracentrotus lividus [2] = assay: Antimitotic activity against Paracentrotus lividus embryo assessed as cleavage alteration at 2 fold less effective threshold concentration after 2.5 to 6 hrs; type: functional, organism-based
Paracentrotus lividus [3] = assay: Antimitotic activity against Paracentrotus lividus embryo assessed as cleavage arrest at 2 fold less effective threshold concentration after 2.5 to 6 hrs; type: functional, organism-based
Paracentrotus lividus [4] = assay: Microtubule destabilizing activity in Paracentrotus lividus embryo assessed as embryo spinning at 2 fold less effective threshold concentration after 15 mins to 20 hrs; type: functional, organism-based

COc1ccc2c(c1)NC1=C(C(=O)OC1)C2c1cc(OC)c2c(c1)OCO2 (stereo not given)
GI50 (CCRF-CEM): < 0.01 µM | GI50 (HL-60(TB)): 0.0209 µM | GI50 (K562): < 0.01 µM | GI50 (MOLT-4): 0.0129 µM | GI50 (RPMI-8226): < 0.01 µM | GI50 (SR): < 0.01 µM | GI50 (A549): 0.0146 µM | GI50 (EKVX): < 0.01 µM | GI50 (HOP-62): 0.0121 µM | GI50 (HOP-92): 0.0862 µM | GI50 (NCI-H226): 0.0101 µM | GI50 (NCI-H23): 0.0202 µM | GI50 (NCI-H322M): 0.0583 µM | GI50 (NCI-H460): 0.0225 µM | GI50 (NCI-H522): < 0.01 µM | GI50 (COLO 205): < 0.01 µM | TGI (COLO 205): 0.0268 µM | GI50 (HCC 2998): 0.0233 µM | GI50 (HCT-116): < 0.01 µM | GI50 (HCT-15): 0.0283 µM | GI50 (HT-29): < 0.01 µM | GI50 (KM12): < 0.01 µM | GI50 (SW-620): < 0.01 µM | GI50 (SF-268): < 0.01 µM | GI50 (SF-295): < 0.01 µM | GI50 (SF-539): < 0.01 µM | GI50 (SNB-19): 0.0499 µM | GI50 (SNB-75): 0.0426 µM | GI50 (U-251): 0.0168 µM | GI50 (LOX IMVI): < 0.01 µM | GI50 (Malme-3M): > 100 µM | GI50 (M14): 0.0132 µM | GI50 (MDA-MB-435): < 0.01 µM | GI50 (SK-MEL-2): 0.0263 µM | GI50 (SK-MEL-28): 0.0564 µM | GI50 (SK-MEL-5): 0.0108 µM | GI50 (UACC-257): 0.0512 µM | GI50 (UACC-62): < 0.01 µM | GI50 (IGROV-1): 0.025 µM | GI50 (OVCAR-3): < 0.01 µM | TGI (OVCAR-3): 0.0122 µM | GI50 (OVCAR-4): 0.0195 µM | GI50 (OVCAR-5): 0.0817 µM | GI50 (OVCAR-8): < 0.01 µM | GI50 (NCI/ADR-RES): < 0.01 µM | GI50 (SK-OV-3): 0.0146 µM | GI50 (786-0): 0.0249 µM | GI50 (A498): < 0.01 µM | GI50 (ACHN): 0.0567 µM | GI50 (CAKI-1): 0.0502 µM | GI50 (RXF 393): < 0.01 µM | GI50 (SN12C): 0.0199 µM | GI50 (TK-10): 0.0607 µM | GI50 (UO-31): 0.03 µM | GI50 (PC-3): 0.0199 µM | GI50 (DU-145): 0.019 µM | GI50 (MCF7): < 0.01 µM | GI50 (MDA-MB-231): 0.0268 µM | GI50 [1]: < 0.01 µM | GI50 (BT-549): 0.046 µM | GI50 (T47D): > 100 µM | GI50 (MDA-MB-468): < 0.01 µM | Activity (Paracentrotus lividus [2]): inactive | Activity (Paracentrotus lividus [3]): inactive | Activity (Paracentrotus lividus [4]): inactive
